According to US20080194407A1, “High nitrogen containing chelate compositions suitable for plant delivery” (priority 2007, published 2008):

What was measured:
oranges = test: Orange orchard foliar zinc study: fruit production and quality; type: in vivo, orange trees; settings: equivalent zinc
Procedure: A study was conducted in oranges in which the application of zinc nitrate was compared to a zinc mixed ligand amino acid chelate. The mixed ligands included arginine, lysine, histidine, leucine, tryptophan, aspartic acid, alanine, and glycine. Specifically, a 12 year old orchard containing 193 trees per acre was evaluated. The trees were divided into 2 groups. One group was sprayed with a zinc nitrate treatment, and the other group was sprayed with a zinc mixed ligand amino acid chelate treatment. The treatments were applied by a sprayer that sprays 535 gallons of liquid per acre.
Each tree was sprayed twice during the study, a first time at 90% petal drop and a second time 14 days later. The zinc nitrate was applied at 49 ounces per acre and the amino acid chelate at 66 ounces per acre. The amount of zinc applied to each group was equivalent.
Ten trees from each group were selected at random and the oranges picked from those trees by hand.

Golden Delicious apples [1] = test: Golden Delicious apple foliar calcium study: Ca analysis of leaves and fruit; type: in vivo, apple trees; settings: 4 foliar applications, 14 day interval; for Apple Ca: apple fruit flesh; for Leaf Ca: apple leaves from fruiting spur
Procedure: A study was conducted with Golden Delicious apples. Calcium is effective in reducing bitterpit in apples, and the present study was initially designed to determine which source of calcium, described below, had the greatest impact on reducing bitterpit. As a secondary aspect of this study, the leaves and fruit were analyzed to see if the source of calcium could affect calcium retention in the plant tissues.
(§1) A block of mature apple trees was divided into 4 sections.
(§2) The amino acids in the calcium chelate were glycine, valine, leucine, tryptophan, isoleucine, lysine, aspartic acid, alanine, and arginine. All treatments were made on the same day. The applications began with the first cover spray and continued from there every 14 days for 4 applications. The leaves were collected from a fruiting spur located at a 45 degree angle from the spray rig and into the tree canopy 3 feet. Samples were collected and sent for analysis. Apples were also collected on the same day from the same location as the leaves. They also were sent for analysis of the fruit flesh. The orchard was then harvested and placed in storage.

Golden Delicious apples [2] = test: Golden Delicious apple foliar calcium study: bitterpit and culls; type: in vivo, apple trees; settings: apples harvested and stored; 4 foliar applications, 14 day interval
Procedure: A study was conducted with Golden Delicious apples. […] As a secondary aspect of this study, the leaves and fruit were analyzed to see if the source of calcium could affect calcium retention in the plant tissues.
as §1, §2
It is noted that absorption of calcium into the plant from a foliar spray is only part of what the plant needs. The calcium source must be able to be retained by the plant after absorption and then be translocated and enter into metabolic activities as needed.

corn (maze) plants [3] = test: Greenhouse foliar study in corn: plant growth as dry matter; type: in vivo; settings: 400 ppm Fe foliar spray twice
Procedure: A greenhouse foliar study was conducted in which 12 inch corn (maze) plants were sprayed with a solution that contained 400 ppm Fe as FeSO4, Fe EDTA, or Fe high nitrogen amino acid chelate with and without the addition of urea and ammonium nitrate. The high nitrogen amino acids were lysine, histidine, cysteine, tryptophan, aspartic acid, alanine, and glycine. The urea and ammonium nitrate were formulated as an admixture and not reacted to the Fe sources. […] These same treatments were repeated one week later. Three weeks following the last spray, all of the plants were harvested and the roots separated from the stalks. Each sample was dried for 24 hours at 75° C., then weighed for dry matter, and the Fe concentrations determined by plasma emission spectrophotometry. […] Greater Fe retention also results in greater plant growth as measured by dry matter.

corn (maze) plants [4] = test: Greenhouse foliar study in corn: Fe concentration by plasma emission spectrophotometry; type: in vivo; settings: 400 ppm Fe foliar spray twice, harvest three weeks after last spray
Procedure: A greenhouse foliar study was conducted in which 12 inch corn (maze) plants were sprayed with a solution that contained 400 ppm Fe as FeSO4, Fe EDTA, or Fe high nitrogen amino acid chelate with and without the addition of urea and ammonium nitrate. The high nitrogen amino acids were lysine, histidine, cysteine, tryptophan, aspartic acid, alanine, and glycine. The urea and ammonium nitrate were formulated as an admixture and not reacted to the Fe sources. […] These same treatments were repeated one week later. Three weeks following the last spray, all of the plants were harvested and the roots separated from the stalks. Each sample was dried for 24 hours at 75° C., then weighed for dry matter, and the Fe concentrations determined by plasma emission spectrophotometry.

[5] = 0 ppm N from urea and ammonium nitrate
[6] = 500 ppm N from urea and ammonium nitrate
[7] = 1000 ppm N urea and ammonium nitrate

Structure (SMILES)	Apple Ca (Golden Delicious apples [1])	Leaf Ca (Golden Delicious apples [1])	percent of bitterpit in the culls (Golden Delicious apples [2])	percent of culls (Golden Delicious apples [2])	Dry Matter (corn (maze) plants [3]; [5])	Dry Matter (corn (maze) plants [3]; [6])	Dry Matter (corn (maze) plants [3]; [7])	Fe in Leaves (corn (maze) plants [4]; [5])	Fe in Leaves (corn (maze) plants [4]; [6])	Fe in Leaves (corn (maze) plants [4]; [7])	other results
O=[N+]([O-])[O-].O=[N+]([O-])[O-].[Zn+2] [Zn Nitrate, zinc nitrate]	–	–	–	–	–	–	–	–	–	–	% Acid (oranges; oranges, sprayed twice): 1.05%; % Brix (oranges; oranges, sprayed twice): 12.2%; % Juice (oranges; oranges, sprayed twice): 57.2%; Weight of oranges/tree (oranges; sprayed twice (90% petal drop and 14 days later), ten trees per group): 95.11 lbs
[O]=[Ca] [Ca Oxide, calcium oxide]	148 ppm	2.15%	25%	34%	–	–	–	–	–	–	–
O=S(=O)([O-])[O-].[Fe+2] [FeSO4]	–	–	–	–	13.23 g/pot	15.73 g/pot	14.82 g/pot	48 ppm^a Fe ppm Fe	53 ppm^a Fe ppm Fe	63 ppm^a Fe ppm Fe	–
O=[N+]([O-])[O-].O=[N+]([O-])[O-].[Ca+2] [Ca Nitrate, calcium nitrate]	190 ppm	2.37%	20%	34%	–	–	–	–	–	–	–
O=C([O-])CN(CCN(CC(=O)[O-])CC(=O)[O-])CC(=O)[O-].[Fe+3] [Fe EDTA]	–	–	–	–	14.12 g/pot	15.08 g/pot	11.24 g/pot	47 ppm^a Fe ppm Fe	56 ppm^a Fe ppm Fe	69 ppm^a Fe ppm Fe	–
[Ca+2].[Cl-].[Cl-] [Ca Chloride, calcium chloride]	138 ppm	1.70%	26%	36%	–	–	–	–	–	–	–
